Assay results as given in article PMC11289651, “Ruthenium(II) complexes of curcumin and β-diketone derivatives: effect of structural modifications on their cytotoxicity” (Royal Society Open Science, 2024).
Like-named read-outs stand apart in the source and are kept apart here.

How the values were obtained:
Assay type in all cases: cell-based
A549 (lung cancer) = test: MTT cytotoxicity assay, A549; conditions: for IC50: read-out: IC50 A549; for SI^4 = IC50 (MRC-5)/IC50 (A549): selectivity index, column head prints IS^4; for IC50 of cisplatin fold higher than IC50 of the complex: A549 cells
Description: (§1) HTB-26), MCF-7 (hormone-dependent breast cancer, ATCC: HTB−22), A549 (lung cancer, ATCC: CCL-185) and A2780cis (cisplatin-resistant ovarian cancer), and the non-tumour cell lines: MCF-10A (breast epithelial cells, ATCC: CRL-10317) and MRC-5 (lung fibroblast, ATCC: […] All the cells were maintained at 37°C in a humidified incubator with a 5% CO2 atmosphere. […] Then, the cells were treated with the compounds, solubilized in DMSO, at different concentrations and the plates were incubated for 48 h. To solubilize cisplatin, dimethylformamide (DMF) was used. The percentage of DMSO and DMF used in the assay was 0.5%. Afterwards, 50 μl of MTT (0.5 mg ml^−1 in phosphate-buffered saline) was added to each well of the plate and the plates were incubated for 4 h at 37°C. Then, the culture medium was removed, and the water-insoluble formazan crystals formed were solubilized by the addition of 100 μl isopropanol. The absorbance was recorded at 540 nm using a microplate reader. The half maximal inhibitory concentration (IC50) values were obtained using the GRAPHPAD PRISM software.

[1] = system: A2780cis (cisplatin-resistant ovarian cancer); test: MTT cytotoxicity assay, A2780cis; conditions: for IC50: read-out: IC50 A2780cis; for SI^3 = IC50 (MRC-5)/IC50 (A2780cis): selectivity index, column head prints IS^3
Description: as §1

[2] = system: MCF-7 (hormone-dependent breast cancer); test: MTT cytotoxicity assay, MCF-7; conditions: for IC50: read-out: IC50 MCF-7; for SI^2 = IC50 (MCF-10A)/IC50 (MCF-7): selectivity index; for IC50 fold lower than that of cisplatin: MCF-7 cells
Description: as §1

[3] = system: MCF-10A (non-tumour breast epithelial cells); test: MTT cytotoxicity assay, MCF-10A; conditions: read-out: IC50 MCF-10A
Description: as §1

[4] = system: MRC-5 (non-tumour lung fibroblast); test: MTT cytotoxicity assay, MRC-5; conditions: read-out: IC50 MRC-5
Description: as §1

[5] = system: MDA-MB-231 (triple-negative breast cancer); test: MTT cytotoxicity assay, MDA-MB-231; conditions: for IC50: read-out: IC50 MDA-MB-231; for SI^1 = IC50 (MCF-10A)/IC50 (MDA-MB-231): selectivity index
Description: as §1

[6] = system: MDA-MB-231, MCF-7, A549, A2780cis, MRC-5 and MCF-10A cell lines; test: MTT cytotoxicity assay, all cell lines studied; conditions: tested concentrations (<100 µM)
Description: The MDA-MB-231, A549 and MRC5 cell lines were cultured in Dulbecco’s modified eagle medium (DMEM) containing 10% fetal bovine serum (FBS), penicillin (100 IU ml^−1), streptomycin (100 mg ml^−1) and L-glutamine (2 mM). The MCF-7 and A2780cis cells were grown in the Roswell Park Memorial Institute (RPMI) containing 10% FBS, penicillin (100 IU ml^−1), streptomycin (100 mg ml^−1) and L-glutamine (2 mM). The MCF-10A cells were grown in DMEM nutrient mixture F-12 (DMEM F-12) containing 5% fetal horse serum, epidermal growth factor (EGF) (20 ng ml^−1), hydrocortisone (0.5 µg ml^−1), insulin (0.01 mg ml^−1), 1% penicillin and 1% streptomycin. All the cells were maintained at 37°C in a humidified incubator with a 5% CO2 atmosphere.
The cytotoxic activities of the free ligands and complexes were analysed by MTT (3-[4,5-dimethylthiazol-2-yl]-2,5 diphenyl tetrazolium bromide) assay [32]. For that, cells were plated in 96-well plates (1.5 × 10^4 cells well^−1) and kept for 24 h in an incubator with 5% CO2 and 37°C for adherence. Then, the cells were treated with the compounds, solubilized in DMSO, at different concentrations and the plates were incubated for 48 h. […] The percentage of DMSO and DMF used in the assay was 0.5%. […] The absorbance was recorded at 540 nm using a microplate reader.

[7] = Homo sapiens, A549, MTT, 48 h incubation
[8] = Homo sapiens, MCF7, MTT, 48 h incubation
[9] = Homo sapiens, MCF-10A, MTT, 48 h incubation
[10] = Homo sapiens, MRC5, MTT, 48 h incubation
[11] = Homo sapiens, MDA-MB-231, MTT, 48 h incubation

COc1cc(/C=C/C(=O)CC(=O)/C=C/c2ccc(O)c(OC)c2)ccc1O [cur, curcumin]
IC50 (A549 (lung cancer); [7]): 33.3 µM | SI^4 = IC50 (MRC-5)/IC50 (A549) (A549 (lung cancer)): 0.27 | IC50 ([1]; A2780cis, MTT, 48 h incubation): 4.02 µM | SI^3 = IC50 (MRC-5)/IC50 (A2780cis) [1]: 2.24 | IC50 [2, 8]: 20 µM | SI^2 = IC50 (MCF-10A)/IC50 (MCF-7) [2]: 0.84 | IC50 [3, 9]: 16.9 µM | IC50 [4, 10]: 8.99 µM | IC50 [5, 11]: 29.7 µM | SI^1 = IC50 (MCF-10A)/IC50 (MDA-MB-231) [5]: 0.57

N.N.[Cl][Pt][Cl] [cisplatin, cis-diamminedichloridoplatinum(II)]
IC50 ([2]; MTT, 48 h incubation): 14 µM | IC50 ([3]; MTT, 48 h incubation): 29.4 µM | IC50 ([5]; MTT, 48 h incubation): 10.2 µM

CC(=O)CC(C)=O [acac, acetylacetonate]
IC50 (A549 (lung cancer); [7]): > 100 µM | IC50 ([1]; A2780cis, MTT, 48 h incubation): > 100 µM | IC50 [2, 8]: > 100 µM | IC50 [3, 9]: > 100 µM | IC50 [4, 10]: > 100 µM | cytotoxic activity (in words) [6]: did not exhibit activity | IC50 [5, 11]: > 100 µM

F[P-](F)(F)(F)(F)F.O=C(C=C([O-])c1ccccc1)c1ccccc1.[Ru+2].c1ccc(-c2ccccn2)nc1.c1ccc(P(c2ccccc2)c2ccccc2)cc1.c1ccc(P(c2ccccc2)c2ccccc2)cc1 [Ru2, [Ru(dbm)(PPh3)2(bipy)]PF6]
IC50 of cisplatin fold higher than IC50 of the complex (A549 (lung cancer)): 11 fold | IC50 (A549 (lung cancer); MTT, 48 h incubation): 1.06 µM | SI^4 = IC50 (MRC-5)/IC50 (A549) (A549 (lung cancer)): 4.57 | IC50 ([1]; MTT, 48 h incubation): 0.39 µM | SI^3 = IC50 (MRC-5)/IC50 (A2780cis) [1]: 12.43 | IC50 fold lower than that of cisplatin [2]: 8.0 fold | IC50 ([2]; MTT, 48 h incubation): 1.74 µM | SI^2 = IC50 (MCF-10A)/IC50 (MCF-7) [2]: 0.98 | IC50 ([3]; MTT, 48 h incubation): 1.71 µM | IC50 ([4]; MTT, 48 h incubation): 4.85 µM | IC50 ([5]; MTT, 48 h incubation): 3.37 µM | SI^1 = IC50 (MCF-10A)/IC50 (MDA-MB-231) [5]: 0.50

O=C(CC(=O)c1ccccc1)c1ccccc1 [dbm, dibenzoylmethane]
IC50 (A549 (lung cancer); Homo sapiens, A549, 48 h): 23.1 µM | SI^4 = IC50 (MRC-5)/IC50 (A549) (A549 (lung cancer)): 0.41 | IC50 ([1]; A2780cis, 48 h): 62.6 µM | SI^3 = IC50 (MRC-5)/IC50 (A2780cis) [1]: 0.15 | IC50 ([2]; Homo sapiens, MCF7, 48 h): 11.7 µM | SI^2 = IC50 (MCF-10A)/IC50 (MCF-7) [2]: 4.34 | IC50 ([3]; Homo sapiens, MCF-10A, 48 h): 50.7 µM | IC50 ([4]; Homo sapiens, MRC5, 48 h): 9.54 µM | IC50 ([5]; Homo sapiens, MDA-MB-231, 48 h): 59.6 µM | SI^1 = IC50 (MCF-10A)/IC50 (MDA-MB-231) [5]: 0.85

COc1cc(C=CC(=O)C=C([O-])C=Cc2ccc(O)c(OC)c2)ccc1O.F[P-](F)(F)(F)(F)F.[Ru+2].c1ccc(-c2ccccn2)nc1.c1ccc(P(c2ccccc2)c2ccccc2)cc1.c1ccc(P(c2ccccc2)c2ccccc2)cc1 [Ru3, [Ru(cur)(PPh3)2(bipy)]PF6]
IC50 (A549 (lung cancer); MTT, 48 h incubation): > 30 µM | IC50 ([1]; MTT, 48 h incubation): 0.82 µM | SI^2 = IC50 (MCF-10A)/IC50 (MCF-7) [2]: 0.45 | IC50 ([3]; MTT, 48 h incubation): 6.41 µM | IC50 ([4]; MTT, 48 h incubation): > 30 µM | IC50 ([5]; MTT, 48 h incubation): 6.8 µM | SI^1 = IC50 (MCF-10A)/IC50 (MDA-MB-231) [5]: 0.94

CC(=O)C=C(C)[O-].F[P-](F)(F)(F)(F)F.[Ru+2].c1ccc(-c2ccccn2)nc1.c1ccc(P(c2ccccc2)c2ccccc2)cc1.c1ccc(P(c2ccccc2)c2ccccc2)cc1 [Ru1, [Ru(acac)(PPh3)2(bipy)]PF6]
IC50 of cisplatin fold higher than IC50 of the complex (A549 (lung cancer)): 8 fold | IC50 (A549 (lung cancer); MTT, 48 h incubation): 1.43 µM | SI^4 = IC50 (MRC-5)/IC50 (A549) (A549 (lung cancer)): 3.44 | IC50 ([1]; MTT, 48 h incubation): 0.59 µM | SI^3 = IC50 (MRC-5)/IC50 (A2780cis) [1]: 8.34 | IC50 fold lower than that of cisplatin [2]: 7.5 fold | IC50 ([2]; MTT, 48 h incubation): 1.86 µM | SI^2 = IC50 (MCF-10A)/IC50 (MCF-7) [2]: 0.91 | IC50 ([3]; MTT, 48 h incubation): 1.7 µM | IC50 ([4]; MTT, 48 h incubation): 4.92 µM | IC50 ([5]; MTT, 48 h incubation): 2.09 ± 0.46 µM | SI^1 = IC50 (MCF-10A)/IC50 (MDA-MB-231) [5]: 0.81
